One experiment deals with A549 cells. Put plainly: Colony formation assay with ionizing radiation. The class given is cell-based, human. How it is done:
(§1) page 32: […] Plates were then washed 2x with PBS, incubated with 20 µL of antibody solution containing […] incubated at RT for 2 hours. Plates were washed 3x with PBS before imaging on the CV7000 high-content imaging platform (Yokogawa). Following image acquisition, images were exported to the ColumbusTM image data storage and analysis system (Perkin Elmer). Optimized image algorithms were used to evaluate phenotypic response s using nuclear staining with Hoechst (cell cycle, micronuclei, nuclear fragmentation ), as well as to quantify the response of DNA damage response markers (foci numbers and total signal […] SDS-PAGE and Western blotting of samples Protein lysates were generated by scraping cells in radioimmunoprecipitation assay […] and protease and phosphatase inhibitor tablets (Roche) following compound treatments at indicated time points. Protein concentration was determined using the BCA protein assay kit (ThermoFisher). Proteins were separated by SDS -PAGE on NuPAGE® 4-12% […] membranes using the iBlot ® dry blotting system (ThermoFisher). Membranes were […] and incubated with primary antibody overnight at 4°C. Membranes were then washed with TBS-T and incubated with HRP-conjugated anti-rabbit or anti-mouse antibodies for 1 hour at RT. Proteins were detected by incubating membranes with SuperSignalTM Dura extended-duration substrate (ThermoFisher) and visualiz ed using the G:BOX ChemiGenius imaging system (Syngene). Band intensities were quantified using Syngene Genetools software. For analysis o f in vivo samples, a two-sided t-test was performed on logged data assuming unequal variance. A list of all antibodies used in this study can be found in Supplementary Table 5. Colony formation assay Cells were plated at low density into six-well plates in 3 mL medium (500 cells for A549, NCI-H1299 and FaDu WT, 4000 cells for FaDu ATM […]) and incubated overnight. Cell plating numbers were adjusted for higher IR doses to compensate for cell kill. […] Cell colonies were washed with […] acetic acid for >10 minutes. Excess stain was removed by washing with water. Surviving colonies (>50 cells) were counted using the GelCountTM colony counter (Oxford Optronix). Mean surviving colonies were calculated from three technical replicates. […] fraction. […] 33

A further experiment has as its system NCI-H1299 cells. Put plainly: Colony formation assay with ionizing radiation. The following applies: for DEF37 Mean / DEF37 n1 / DEF37 n2: NCI-H1299. The class given is cell-based, human. How it is done: as §1
Another experiment deals with A549 xenografts. The experiment can be described thus: Pharmacodynamic biomarkers by immunohistochemistry after IR. In kind it is in vivo, mice. To be noted: single dose AZD7648 100 mg kg−1, 1 h before IR 6 Gy.
Experiment [1] has as its system FaDu and A549 ATM KO cells. The experiment can be described thus: Live/Dead assay, AZD7648 monotherapy, ATM KO versus WT isogenic pairs. The class given is cell-based, human. The following applies: AZD7648 single agent. An excerpt: (§2) by Live/Dead assay in A) UWB1.289 and UWB1.289 complemented with wild-type BRCA1 (UWB1.289 + BRCA1), DLD1 and DLD1 with the BRCA2 gene knocked out (DLD1 BRCA2 KO), and B) FaDu and A549 cells with the ATM gene knocked out (ATM KO) compared with their WT counterpart. Graphs represent percentage viable cells ± SD following 7 days’ treatment relative to DMSO vehicle-treated controls from one representative experiment of at least three independent experiments. Tables describe […]
(§3) and A549 ATM KO cells compared with their WT counterparts following 7 days’ treatment.
(§4) Mean pGI50 (–log [GI50]) ± SEM, geometric mean GI50, number of experimental repeats (n) and 95% confidence interval are described. C) Colony formation assay was performed on FaDu and A549 ATM KO and WT cells treated with increasing concentrations of olaparib. Graphs represent percentage surviving fraction of colonies ± SD following 10– 14 days’ treatment relative to DMSO vehicle-treated control from one representative experiment of three independent experiments. […] Mean pIC50
(§5) ± SEM, geometric mean IC50, number of experimental repeats (n) and 95% confidence […]
(§6) 8–14 days or with increasing concentrations of olaparib. Cell colonies were washed with […]
(§7) Mean surviving colonies were calculated from three technical replicates. […]
(§8) before survival fraction was calculated. […]
(§9) and quantified using the Acumen ® Cellista (TTP Labtech). […]

Experiment [2] relates to UWB1.289 and DLD1 BRCA2 KO cells. Put plainly: Live/Dead assay, AZD7648 monotherapy, BRCA1/BRCA2 isogenic pairs. In kind it is cell-based. To be noted: 7 days treatment.
Excerpt: as §2, §3, §4, §5, §6, §7, §8, §9

A further experiment concerns FaDu ATM KO cells. The experiment can be described thus: Cell proliferation (GI50), Live/Dead assay. The class given is cell-based. To be noted: Homo sapiens, read-out: GI50 (near 50% of maximal inhibition of cell proliferation).
Excerpt: as §2, §3, §4, §5, §6, §7, §8, §9

The test system of experiment [3] is FaDu ATM KO xenograft model. The experiment can be described thus: Pharmacodynamic biomarkers by western blot. The class given is in vivo, mice. To be noted: 30 min after 75 mg kg−1 dose of AZD7648. The text has this:
(1 picture or pasted object on this page, not shown here)
treatment groups when mean tumour volume reached ~0.2 cm 3.
On the technique in general: A western blot detects proteins with antibodies after separation by electrophoresis.

Molecules are shown by their SMILES.

In the case of `Cc1cc2ncnn2cc1Nc1ncc2c(n1)n(C1CCOCC1)c(=O)n2C` [AZD7648], the “DEF37 Mean” value with A549 cells (AZD7648 0.025 μM + IR) was 1.2; in the experiment on A549 cells (AZD7648 0.1 μM + IR), 1.7; in the experiment with A549 cells (AZD7648 1.21 μM + IR) it was 5.1; with NCI-H1299 cells (AZD7648 0.025 μM + IR) it was 1.3; in the experiment with NCI-H1299 cells (AZD7648 0.1 μM + IR), 2.5; with NCI-H1299 cells (AZD7648 1.21 μM + IR), 7.4. The “DEF37 n1” value came out at 1.3 in the experiment on A549 cells (AZD7648 0.025 μM + IR); 1.4 in the experiment with A549 cells (AZD7648 0.1 μM + IR); 3.2 with A549 cells (AZD7648 1.21 μM + IR); 1.2 in the experiment on NCI-H1299 cells (AZD7648 0.025 μM + IR); 2.9 with NCI-H1299 cells (AZD7648 0.1 μM + IR); 7.9 in the experiment with NCI-H1299 cells (AZD7648 1.21 μM + IR). In addition, the “DEF37 n2” value in the experiment on A549 cells (AZD7648 0.025 μM + IR) worked out at 1.2; in the experiment with A549 cells (AZD7648 0.1 μM + IR), 1.9; with A549 cells (AZD7648 1.21 μM + IR), 7.0; in the experiment with NCI-H1299 cells (AZD7648 0.025 μM + IR) it was 1.3; with NCI-H1299 cells (AZD7648 1.21 μM + IR), 7.0. The “Mean DEF37” value with A549 cells (AZD7648 1 μM + IR (Fig. 1e)) is listed as 5.1; with NCI-H1299 cells (H1299, AZD7648 1 μM + IR (Fig. 1e)), 7.4. Moreover, the “IR-induced increases in pDNA-PKcs Ser2056 and γH2AX” value in the experiment on A549 xenografts was “abolished”. Also, the “greater sensitivity of ATM KO cells compared with isogenic WT cells” value in experiment [1] is on record as over 10 fold. Further, the “effect of loss of BRCA1 or BRCA2 on sensitivity to monotherapy” value in experiment [2] is recorded as “did not sensitize”. The GI50 with FaDu ATM KO cells was about 0.6 µM. In addition, the “reduction of pDNA-PKcs Ser2056, γH2AX and pRPA32 Ser4/Ser8” value in experiment [3] is ~ 80%.
